Data reported in US20240216330A1, “COMBINATION TREATMENT METHODS OF MULTIPLE SCLEROSIS” (BIOGEN MA INC., priority 2021, published 2024).
Counter-ions that a name gives are not always drawn. Marks after values point to notes of the source that are not given here.

How the values were obtained:
[1] = test system: B cell-dependent experimental autoimmune encephalomyelitis (EAE); test: Prophylactic B cell-dependent EAE, murine model of multiple sclerosis (hMOG1-125 immunization); format: in vivo, C57BL/6 mice; conditions: BIIB091 50 mpk and/or DRF 90 mpk p.o. BID; for End score +/- SD: EAE score scale 0 to 5, end of study Day 28; for MMS +/- SD (mean maximum score): EAE score scale 0 to 5; for MMS +/- SD (mean maximum score) / EAE incidence / Median day of onset (all mice): Day 0 to Day 27; for End % body weight +/- SD: end of study Day 28; for EAE incidence / Median day of onset (all mice): female C57BL/6 mice; for EAE incidence: 20 animals per group; for Median day of onset (all mice): study end Day 28
Text: The goal of the study is to compare efficacy of diroximel fumarate (Vumerity) alone, BIIB091 alone, and the combination diroximel fumarate and BIIB091 in B cell-dependent experimental autoimmune encephalomyelitis (EAE). B cells are required for experimental autoimmune encephalomyelitis (EAE) induced by immunization of female C57BL/6J mice with full length recombinant human myelin oligodendrocyte glycoprotein (MOG) hMOG1-125 in adjuvant (Oliver, A. R. et al. “Rat and human myelin oligodendrocyte glycoproteins induce experimental autoimmune encephalomyelitis by different mechanisms in C57BL/6 mice.” J Immunol (2003). 171(1): 462-468; Lyons, J. et al “B cells are critical to induction of experimental allergic encephalomyelitis by protein but not by a short encephalitogenic peptide”. Eur. J. Immunol. (1999), 29: 3432-3439). [table] Female mice at 9-13 weeks of age (age-matched within one week) were ordered from Taconic Biosciences and given standard water and chow ad libitum throughout the duration of the experiment. Mice were acclimated to the […] for at least 7 days prior to the start of the study. EAE was induced in all mice as follows: [table] Mice were injected subcutaneously at 2 sites in the back with the emulsion component (containing MOG1-125) of Hooke KitTM MOG1-125/CFA Emulsion PTX, catalog number EK-2160 (Hooke Laboratories, Lawrence MA). The first site of injection was in the upper back, approximately 1 cm caudal of the neck line. The second site was in the lower back, approximately 2 cm cranial of the base of the tail. The injection volume was 0.1 mL at each site. Within 2 hours of the injection of emulsion, and then again 24 hours after the injection of emulsion, the pertussis toxin component of the kit was administered intraperitoneally. Mice were assigned to groups in a balanced manner to achieve similar average weight across the groups at the start of the study (Day-1). Dosing volume of all treatments was 5 mL/kg. Both treatment compounds were formulated in the same vehicle: (0.5% HPMC E50 premium LV/0.2% Tween 20 pH 4 (50 mM Citrate Buffer) [table] Dosing of all mice started on Day 0 and continued through Day 27. Dosing for each treatment was at the same time (+/-1 hour) each dosing day. There were at least 30 and not more than 90 minutes between administration of Treatments 1 and 2. There were no less than 10 and no more than 14 hours between doses of the same article Readouts are EAE scores and body weight. Body weight were measured 3 times/week (Monday, Wednesday, Friday; weighing may be delayed 1 day if these fall on a major US holiday), starting on Day-1. Animals were scored daily starting from Day 7. All readouts continued until termination of the study. Scoring was performed blind, by a person unaware both of treatment and of previous scores for each mouse. EAE was scored on the scale of 0 to 5 according to scoring criteria in Table 3 below: [table] In-between scores were assigned when the clinical signs fall between two above defined scores. b. Statistical Analysis Hooke's standard statistical analysis for EAE studies was applied, according to Table 4 below. [table]

[2] = test system: MRL/LPR mice (autoimmune disease resembling systemic lupus erythematosus); test: MRL/LPR mice model of lupus; format: in vivo; conditions: female MRL/LPR mice, oral BID for 11 weeks from 9 weeks of age; BIIB091 50 mg/kg, DRF 90 mg/kg
Text: MRL/MpJ-Fas^lppr/J (MRL-lpr) (hereinafter MRL/LPR mice) mice develop an autoimmune disease resembling systemic lupus erythematosus (SLE). These mice have a severe disease progression involving anti-DNA antibodies, fatal glomerulonephritis, vasculitis, skin lesions, lymphadenopathy and splenomegaly. The causative mutation in this strain of mice is a loss of function in the death receptor Fas and disease onset is accelerated in female mice as compared to males. For this reason, female mice were chosen for these experiments.
Female MRL/LPR mice were ordered from the Jackson laboratory and all experiments were conducted a Boulder Biopath.
Female mice were dosed orally beginning at 9 weeks of age with BIIB091 alone, DRF alone, BIIB091 and DRF in combination or the vehicle control twice daily (BID) for 11 weeks. BIIB091 was dosed at 50 mg/kg, while DRF was dosed at 90 mg/kg, respectively. Cyclophosphamide (CPA) was used as a positive control in the study and was administered through intraperitoneal injection (IP) once daily at 15 mg/kg. […]
The following serum cytokines and chemokines were assessed using Luminex assays: IL-1B, IL-2, IL-4, IL-5, IL-6, IL-10, IL-12, IL-13, IL-15, IL-17A, IL-17E, IL-17F, IL-21, IL-22, IL-23, IL-27, IL-28B, IL-31 and IL-33; sCD40L, GM-CSF, IFNγ, MIP-3α, TNFα and TNFβ. […]

[3] = test system: BCR-mediated CD69 upregulation on CD19+ B cells; test: CD69 assay in whole blood stimulated with anti-human IgD; format: cell-based; conditions: 30 minutes pre-incubation at 37° C., overnight anti-IgD stimulation
[4] = cited from earlier work

Structure (SMILES)	End score +/- SD [1]	MMS +/- SD (mean maximum score) [1]	End % body weight +/- SD [1]	EAE incidence [1]	Median day of onset (all mice) [1]	Efficacy in mice model of lupus [2]	Inhibition of BCR-mediated CD69 upregulation ([3]; whole blood samples from MS patients not on treatment or treated with non-DMF DMTs)	Inhibition of BCR-mediated CD69 upregulation ([3]; whole blood samples from MS patients treated with DMF)	MMF exposure ([4]; DRF 462 mg dose taken orally versus DMF 240 mg dose taken orally)	GI tolerability ([4]; compared to DMF)
Cn1cc(Nc2nccc(-c3ccc4c(c3)CN(C3COC3)CC[C@H]4NC(=O)c3cn(C(C)(C)C)nn3)n2)cn1 [BIIB091, (R)-1-(tert-butyl)-N-(8-(2-((1-methyl-1H-pyrazol-4-yl)amino)pyrimidin-4-yl)-2-(oxetan-3-yl)-2,3,4,5-tetrahydro-1H-benzo[c]azepin-5-yl)-1H-1,2,3-triazole-4-carboxamide]	0.60 +/− 0.88^a	1.13 +/− 1.38^a	102.8% +/− 8.3%^a	45.0%^a	>28.0^a* day	efficacious	inhibited	inhibited	–	–
COC(=O)/C=C/C(=O)OCCN1C(=O)CCC1=O [DRF, diroximel fumarate]	1.00 +/− 1.19^a	1.45 +/− 1.52^a	98.2% +/− 8.3%	50.0%^a	>28.0^a* day	did not show efficacy	–	–	comparable to that of the DMF 240 mg dose	improved GI tolerability compared to DMF
